Results from paper PMC7978378, “Discovery of novel dual adenosine A1/A2A receptor antagonists using deep learning, pharmacophore modeling and molecular docking” (PLoS Computational Biology, 2021).

Columns and labels:
[1] = parameters: method as in PMID 20973483; conditions: further studies; cited from earlier work
animal models of PD = system: animal models of PD; parameters: method as in PMID 20973483; conditions: oral administration; cited from earlier work
A1 receptor = conditions: cited from earlier work
A2A receptor = conditions: cited from earlier work
A1AR [2] = target: A1AR; parameters: method as in ChEMBL25 [53]; conditions: S1 Table training set; ref ChEMBL25 [53]; read-out: Ki (nM) A1; cited from earlier work
A2AAR [3] = target: A2AAR; parameters: method as in ChEMBL25 [53]; conditions: S1 Table training set; ref ChEMBL25 [53]; read-out: Ki (nM) A2A; cited from earlier work
A1AR [4] = target: T1, A1AR (Homo sapiens, UniProt P30542); experiment: cAMP functional assay, CHO-A1 cells; type: cell-based; parameters: host or cells: CHO-A1 cells; conditions: antagonism of NECA effect on cAMP, 5.08 × 10^−3 to 100 μM, read-out: cAMP assays (pIC50) A1 (converted)
T1 sequence (P30542 1-326): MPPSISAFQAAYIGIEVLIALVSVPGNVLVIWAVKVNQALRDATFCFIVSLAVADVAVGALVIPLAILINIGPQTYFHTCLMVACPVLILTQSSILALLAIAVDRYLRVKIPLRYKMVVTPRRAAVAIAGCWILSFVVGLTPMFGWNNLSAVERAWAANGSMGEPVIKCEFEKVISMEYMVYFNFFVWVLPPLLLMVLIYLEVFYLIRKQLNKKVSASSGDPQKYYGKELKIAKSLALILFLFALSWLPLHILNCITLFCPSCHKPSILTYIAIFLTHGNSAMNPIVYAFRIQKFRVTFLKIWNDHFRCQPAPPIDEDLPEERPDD

A2AAR [5] = target: T2, A2AAR (Homo sapiens, UniProt P29274); experiment: Radioligand binding assay ([3H]ZM241385); conditions: [3H]ZM241385 0.5 nM, 90 min at 27°C, Cheng-Prusoff; read-out: Binding affinities (pKi) A2A (converted)
T2 sequence (P29274 whole entry): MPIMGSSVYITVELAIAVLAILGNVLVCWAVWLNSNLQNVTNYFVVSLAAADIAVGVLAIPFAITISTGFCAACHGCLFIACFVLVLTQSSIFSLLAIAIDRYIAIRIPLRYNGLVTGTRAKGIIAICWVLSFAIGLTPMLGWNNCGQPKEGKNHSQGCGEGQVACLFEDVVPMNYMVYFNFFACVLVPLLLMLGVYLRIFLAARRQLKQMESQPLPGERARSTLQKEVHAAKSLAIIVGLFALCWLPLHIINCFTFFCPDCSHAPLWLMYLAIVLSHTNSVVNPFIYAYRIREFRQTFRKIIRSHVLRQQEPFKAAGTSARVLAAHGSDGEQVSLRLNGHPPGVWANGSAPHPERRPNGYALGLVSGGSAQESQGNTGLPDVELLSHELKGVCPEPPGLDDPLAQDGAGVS

A1AR [6] = target: T1, A1AR; experiment: biochemical
A2AAR [7] = target: T2, A2AAR; experiment: cAMP functional assay, HEK293-A2A cells; type: cell-based; parameters: host or cells: HEK293-A2A cells; conditions: antagonism of NECA effect on cAMP, 5.08 × 10^−3 to 100 μM, read-out: cAMP assays (pIC50) A2A (converted)
A1/A2A ARs [8] = experiment: Radioligand binding assays, summarised over both receptors; parameters: species or system human; conditions: range over A1AR and A2AAR radioligand binding assays
A1/A2A ARs [9] = experiment: cAMP functional assay, summarised over both receptors; conditions: range over A1AR and A2AAR cAMP assays
rodents = conditions: forced swim test and tail suspension test in rodents; cited from earlier work

Row | SMILES | IC50 (A1AR [4]) [nM] | Ki (A1AR [2]) [nM] | Ki (A2AAR [3]) [nM] | also measured
1 | Nc1nc(-c2ccccc2)c2c(n1)-c1cc(CN3CCCC3)ccc1C2=O [2-amino-4-phenyl-8-(pyrrolidin-1-ylmethyl)-5H-indeno[1,2-d]pyrimidin-5-one] |  |  |  | genotoxicity [1]: genotoxic; activity in animal models of PD (animal models of PD): excellent activity
2 | Cc1ccc(-c2cc(-c3cccc(C(=O)N4CCCCC4)c3)nc(N)n2)o1 [4-(5-methylfuran-2-yl)-6-[3-(piperidine-1-carbonyl)phenyl]pyrimidin-2-amine] |  |  |  | Ki (A1 receptor): 9.54 nM; Ki (A2A receptor): 6.34 nM
3 | N#Cc1c(N)nc(SCc2ncc[nH]2)c(C#N)c1-c1ccc(O)cc1 [CHEMBL122622] |  | 2.6 | 28 | 
4 | COc1ccc(NC(=O)Nc2nc3ccc(Cl)cc3c3nc(-c4ccco4)nn23)cc1 [CHEMBL144979] |  | 7.6 | 9.4 | 
5 | CCCCCc1nc(N)c2nc(-n3nccn3)n(C)c2n1 [CHEMBL196258] |  | 26.2 |  | 
6 | Nc1nc(C#C[C@@H](O)c2ccccc2)nc2c1ncn2[C@@H]1O[C@H](CO)[C@@H](O)[C@H]1O [CHEMBL262363] |  | 0.67 | 1.8 | 
7 | OC[C@H]1O[C@@H](n2cnc3c(NC4CCCC4)nc(Cl)nc32)[C@H](O)[C@@H]1O [CHEMBL284969] |  |  | 17 | 
8 | CC(=O)Nc1cc(-n2cccn2)nc(-c2ccco2)n1 [CHEMBL401321] |  | 9.45 | 0.6 | 
9 | Cc1ccc(-c2nc(N)nc3c2nnn3Cc2ccccc2F)o1 [CHEMBL461857] |  | 19 | 2.1 | 
10 | CC(=O)Nc1cc(-c2cccc(N3CCCC3)n2)nc(-n2nc(C)cc2C)n1 [CHEMBL485765] |  | 7.2 | 0.26 | 
11 | O=C(NC1CC1)[C@H]1S[C@@H](n2cnc3c(NCc4cccc(I)c4)ncnc32)[C@H](O)[C@@H]1O [CHEMBL596014] |  |  | 15.2 | 
12 | Nc1nc(-c2ccccc2)c2c(n1)-c1cc(N3CCOCC3)ccc1C2=O [CHEMBL1095822] |  | 32.4 | 2.9 | 
13 | CCn1c(/N=C/c2ccc(F)cc2)c(C#N)sc1=S [CHEMBL2419148] |  |  | 11 | 
14 | CN(C)CCOc1ccc(-c2nc3c([nH]2)c(=O)n(C)c(=O)n3C)cc1 [CHEMBL3121720] |  | 1.82 | 0.4 | 
15 | CCn1c(=O)c2c(nc(/C=C/c3ccc(OC)c(OC)c3)n2C)n(CC)c1=O [KW-6002] |  |  |  | antidepressant activity (rodents): antidepressant activity

Continued, in another order:

Row | IC50 (A1AR [4]) [nM] | SMILES | Ki (A1AR [2]) [nM] | Ki (A2AAR [3]) [nM] | also measured
16 | > 100000 | CCCCNC(=O)CCn1nc(-c2ccccc2)c2ccccc2c1=O [Compound C1] |  |  | 
17 | > 100000 | O=C(COc1ccccc1)Nc1c(C(=O)Nc2cccc(F)c2)oc2ccccc12 [Compound C2] |  |  | 
18 | > 100000 | O=C(CCCn1c2ccccc2c2cn[nH]c(=O)c21)NCc1cccs1 [Compound C3] |  |  | 
19 | 3090 | O=C(c1ccco1)n1nc(-c2ccco2)nc1NCc1ccccc1 [Compound C4] |  |  | Ki (A2AAR [5]): 19500 nM; Ki (A1AR [6]): 2090 nM; IC50 (A2AAR [7]): > 100000 nM
20 | 1910 | Cc1ccccc1-c1nc(N)n(C(=O)Cc2ccccc2)n1 [Compound C7] |  |  | Ki (A2AAR [5]): 5750 nM; Ki (A1AR [6]): 1050 nM; IC50 (A2AAR [7]): > 100000 nM
21 | 191 | Nc1nc(-c2ccccc2Cl)nn1C(=O)c1cccc(Cl)c1 [Compound C9] |  |  | Ki (A2AAR [5]): 69.2 nM; pKi for A1/A2A ARs (A1/A2A ARs [8]): 7.16–7.49; Ki (A1AR [6]): 32.4 nM; IC50 (A2AAR [7]): 490 nM; pIC50 towards A1/A2A ARs (A1/A2A ARs [9]): 6.31–6.78
22 | 347 | CCCNc1cc(C)nc2c(C)c(-c3ccc(C)cc3)nn12 [Compound C10] |  |  | Ki (A2AAR [5]): 8320 nM; Ki (A1AR [6]): 170 nM; IC50 (A2AAR [7]): 10000 nM
23 | > 100000 | Cn1c(=O)c2c(-c3cccc(Cl)c3)c(Nc3ccccc3)oc2n(C)c1=O [Compound C11] |  |  | 
24 | > 100000 | O=C(Cc1csc(NC(=O)c2ccc3c(c2)OCO3)n1)NCCCc1ccccc1 [Compound C13] |  |  | 
25 | > 100000 | Cc1cccc(NC(=O)Cc2csc(NC(=O)c3ccc4c(c3)OCO4)n2)c1 [Compound C14] |  |  | 
26 | 4470 | CC(=O)c1cccc(NC(=O)Nc2cc3c(cc2Oc2ccccc2)n(C)c(=O)n3C)c1 [Compound C15] |  |  | Ki (A2AAR [5]): > 100000 nM; Ki (A1AR [6]): 2880 nM; IC50 (A2AAR [7]): 7940 nM; pIC50 towards A1/A2A ARs (A1/A2A ARs [9]): 5.10–5.35
27 | > 100000 | CCCn1ccc2c(OCC(=O)Nc3ccc(OCC)cc3)cccc2c1=O [Compound C16] |  |  | 
28 | 631 | CCn1cnc2c(-c3ccccc3)cn(CC(=O)Nc3cccc(F)c3)c2c1=O [Compound C17] |  |  | Ki (A2AAR [5]): > 100000 nM; Ki (A1AR [6]): 525 nM; IC50 (A2AAR [7]): 63100 nM
29 | > 100000 | O=C(Cn1c(=O)n(-c2ccccc2)c2ncccc21)NCc1cccc(F)c1 [Compound C18] |  |  | 
30 | 52500 | Cc1ccc(-c2c(C(=O)NCc3ccncc3)nc3ccccn23)cc1 [Compound C19] |  |  | Ki (A2AAR [5]): 11700 nM; Ki (A1AR [6]): 10700 nM; IC50 (A2AAR [7]): > 100000 nM
